The source of these data is patent US12668585B2, “Substituted pyrimidinyl-pyrazoles as CDK2 inhibitors” (BLUEPRINT MEDICINES CORPORATION, priority 2021, dated 2026).

The target in experiment [1] is T1, CDK2/Cyclin E (Homo sapiens, UniProt P24941).
T1 construct: purchased Eurofins 14-475
Put plainly: Biochemical CDK inhibition assay (Caliper mobility shift), CDK2/Cyclin E. The conditions noted are these: read-out: CDK2/cyclin E1 IC50. On the procedure: (§1) Inhibitory effects of the compounds of the disclosure were measured in biochemical assays that measure the enzymatic phosphorylation activity of CDK enzyme in complex of Cyclin proteins phosphorylates 7.5 micromolar fluorescently labelled peptide substrate, 5-FAM-QSPKKG-CONH2, (FL-Peptide 18, Perkin Elmer, 760362) in the presence of adenosine-5′-triphosphate (ATP) and varying concentrations of the test compound in 100 mM 2-[4-(2-hydroxyethyl)piperazin-1-yl] ethanesulfonic acid (HEPES), pH 7.5, 10 mM MgCl2, 0.015% Brij-35, 1 mM dithiothreitol (DTT), 1.0% dimehylsulfoxide (DMSO). […] Reactions proceeded until between 10% to 20% total peptides were phosphorylated at room temperature (25° C.) and were terminated with 35 mM 2,2′,2″,2′″-(ethane-1,2-diyldinitrilo)tetraacetic acid (EDTA). Product was detected using the Caliper mobility shift detection method where the phosphorylated peptide (product) and substrate were electrophoretically separated and measured. Percent activity was plotted against log concentration of compound and points to generate an apparent IC50. The following CDK enzymes in complex with different cyclin proteins were used in these assays: • CDK1/Cyclin B1, GST-tag (BPS, 40454), 1.5 nM used in the assay • CDK2/Cyclin E (Eurofins, 14-475), 1.25 nM used in the assays
(§2) For inhibitory activity against CDK2/Cyclin E mutant, the following designations are used: ≤10 nM=A; >10-20 nM=B; >20-30 nM=C; >30-100 nM=D and >100=E. For inhibition CDK1/Cyclin B1, GST-tag: ≥500 nM=A; <100-500 nM=B; <100 nM=C.

The target in experiment [2] is T2, CDK1/Cyclin B1, GST-tag (Homo sapiens, UniProt P06493).
T2 construct: GST; purchased BPS 40454
T2 sequence (P06493 whole entry): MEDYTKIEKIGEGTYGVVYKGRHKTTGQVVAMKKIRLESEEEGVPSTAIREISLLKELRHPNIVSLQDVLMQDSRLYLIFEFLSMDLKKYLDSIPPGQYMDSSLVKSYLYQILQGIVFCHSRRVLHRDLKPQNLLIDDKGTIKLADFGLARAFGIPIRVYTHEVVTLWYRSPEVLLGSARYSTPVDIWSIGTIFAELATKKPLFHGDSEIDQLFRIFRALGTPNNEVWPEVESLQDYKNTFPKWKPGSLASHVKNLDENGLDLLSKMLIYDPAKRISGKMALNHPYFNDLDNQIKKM
T2 sequence (P14635 whole entry partner): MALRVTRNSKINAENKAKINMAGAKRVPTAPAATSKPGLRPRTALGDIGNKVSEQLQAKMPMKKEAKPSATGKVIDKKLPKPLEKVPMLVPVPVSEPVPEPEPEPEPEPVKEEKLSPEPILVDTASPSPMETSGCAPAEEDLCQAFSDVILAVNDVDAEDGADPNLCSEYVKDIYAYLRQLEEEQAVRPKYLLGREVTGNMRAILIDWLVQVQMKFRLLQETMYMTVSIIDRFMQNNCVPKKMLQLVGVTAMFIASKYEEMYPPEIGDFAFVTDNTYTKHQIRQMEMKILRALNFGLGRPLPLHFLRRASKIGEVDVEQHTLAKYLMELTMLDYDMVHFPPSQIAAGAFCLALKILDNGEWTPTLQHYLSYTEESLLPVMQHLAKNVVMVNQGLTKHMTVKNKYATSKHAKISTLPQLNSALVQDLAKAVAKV
Put plainly: Biochemical CDK inhibition assay (Caliper mobility shift), CDK1/Cyclin B1. As to the method: as §1, §2

Turning to `CC(C)(CO)n1cc(-c2nc(Nc3ccc(S(N)(=O)=O)cc3F)ncc2C(F)(F)F)cn1` [Example 22, 3-fluoro-4-((4-(1-(1-hydroxy-2-methylpropan-2-yl)-1H-pyrazol-4-yl)-5-(trifluoromethyl)pyrimidin-2-yl)amino)benzenesulfonamide], the IC50 in experiment [1] was no more than 0.01 µM; in experiment [2], 0.1 to 0.5 µM.

`CC(C)(O)Cn1cc(-c2nc(Nc3ccc(S(N)(=O)=O)cc3)ncc2Cl)cn1` [Example 3, 4-((5-chloro-4-(1-(2-hydroxy-2-methylpropyl)-1H-pyrazol-4-yl)pyrimidin-2-yl)amino)benzenesulfonamide]: the results for the IC50 in experiment [1] and in experiment [2] were no more than 0.01 µM and less than 0.1 µM, respectively.

In the case of `N#Cc1cnc(Nc2ccc(S(N)(=O)=O)cc2)nc1-c1cnn(CCO)c1` [Example 34, 4-((5-cyano-4-(1-(2-hydroxyethyl)-1H-pyrazol-4-yl)pyrimidin-2-yl)amino)benzenesulfonamide], the results for the IC50 in experiment [1] and in experiment [2] were 0.01 to 0.02 µM and 0.1 to 0.5 µM, respectively.

With `COc1cc(S(N)(=O)=O)ccc1Nc1ncc(F)c(-c2cnn(CC(C)(C)O)c2)n1` [Example 46, 4-((5-fluoro-4-(1-(2-hydroxy-2-methylpropyl)-1H-pyrazol-4-yl)pyrimidin-2-yl)amino)-3-methoxybenzenesulfonamide], the IC50 in experiment [1] was 0.03 to 0.1 µM; in experiment [2] it was no less than 0.5 µM.

As for `Cc1cc(Nc2ncc(C(F)(F)F)c(-c3cnn(CC(C)(C)O)c3)n2)cc(C)c1S(N)(=O)=O` [Example 37, 4-((4-(1-(2-hydroxy-2-methylpropyl)-1H-pyrazol-4-yl)-5-(trifluoromethyl)pyrimidin-2-yl)amino)-2,6-dimethylbenzenesulfonamide], the figures for the IC50 in experiment [1] and in experiment [2] were 0.01 to 0.02 µM and 0.1 to 0.5 µM, respectively.

Consider `C[C@H](O)[C@@H](C)n1cc(-c2nc(Nc3ccc(S(N)(=O)=O)cc3F)ncc2C(F)(F)F)cn1` (single isomer, unassigned) [Example 15], for which the IC50 in experiment [1] was no more than 0.01 µM; in experiment [2] it was 0.1 to 0.5 µM.

Consider `COc1c(S(N)(=O)=O)ccc(Nc2ncc(C(F)(F)F)c(-c3cnn(CC(C)(C)O)c3)n2)c1F` [Example 40, 3-fluoro-4-((4-(1-(2-hydroxy-2-methylpropyl)-1H-pyrazol-4-yl)-5-(trifluoromethyl)pyrimidin-2-yl)amino)-2-methoxybenzenesulfonamide], for which the IC50 in experiment [1] was 0.01 to 0.02 µM; in experiment [2], no less than 0.5 µM.

Consider `CC(C)(O)Cn1cc(-c2nc(Nc3ccc(S(N)(=O)=O)cc3Cl)ncc2F)cn1` [Example 44, 3-chloro-4-((5-fluoro-4-(1-(2-hydroxy-2-methylpropyl)-1H-pyrazol-4-yl)pyrimidin-2-yl)amino)benzenesulfonamide], for which the IC50 is 0.02 to 0.03 µM in experiment [1] and no less than 0.5 µM in experiment [2].

In the case of `C[C@@H](O)[C@H](C)n1cc(-c2nc(Nc3ccc(S(N)(=O)=O)cc3F)ncc2C(F)(F)F)cn1` (single isomer, unassigned) [Example 13], the IC50 in experiment [1] is no more than 0.01 µM; in experiment [2], 0.1 to 0.5 µM.

Take `CC(C)(O)Cn1cc(-c2nc(Nc3ccc(S(N)(=O)=O)cc3)ncc2C#N)cn1` [Example 8, 4-((5-cyano-4-(1-(2-hydroxy-2-methylpropyl)-1H-pyrazol-4-yl)pyrimidin-2-yl)amino)benzenesulfonamide]: the IC50 in experiment [1] is no more than 0.01 µM; in experiment [2], less than 0.1 µM.

As to `NS(=O)(=O)c1ccc(Nc2ncc(C(F)(F)F)c(-c3cnn(C4(CO)CC4)c3)n2)c(F)c1` [Example 16, 3-fluoro-4-((4-(1-(1-(hydroxymethyl)cyclopropyl)-1H-pyrazol-4-yl)-5-(trifluoromethyl)pyrimidin-2-yl)amino)benzenesulfonamide], the IC50 in experiment [1] is no more than 0.01 µM; in experiment [2] it was 0.1 to 0.5 µM.

For the compound `Cc1c(S(N)(=O)=O)ccc(Nc2ncc(C(F)(F)F)c(-c3cnn(CC(C)(C)O)c3)n2)c1F` [Example 21, 3-fluoro-4-((4-(1-(2-hydroxy-2-methylpropyl)-1H-pyrazol-4-yl)-5-(trifluoromethyl)pyrimidin-2-yl)amino)-2-methylbenzenesulfonamide], the IC50 is no more than 0.01 µM in experiment [1] and 0.1 to 0.5 µM in experiment [2].
